Assay results as given in the supplement of paper PMC10627819.

What was measured:
[1] = test system: S. aureus DSM 20231; experiment: Bliss interaction score (quartile over a dose matrix) (fitness difference); higher = more antagonism (negative = synergy)
In short: (§1)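 Fitness here means normalised growth, inferred for single drugs from the combination data. Growth was OD595 at entry into stationary phase, divided by the plate's robust no-drug mean and capped at 1. The Bliss score is observed minus expected fitness, with the expectation being the product, and its quartiles span technical, biological and donor/recipient replicates.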

[2] = test system: S. pneumoniae D39V; experiment: as above
In short: as §1

[3] = test system: B. subtilis 168; experiment: as above
In short: as §1

[4] = test system: S. aureus Newman; experiment: as above
In short: as §1

[5] = test system: S. pneumoniae D39V; experiment: fitness (endpoint OD595 vs no drug) (fraction); higher = more growth
In short: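 Fitness expresses the optical density reached at the stationary-phase transition as a fraction of the robust mean of no-drug control wells. It is capped at 1. Measurements were OD595 every 30 min for 14 h at 37 °C after inoculation of 384-well plates at OD595 0.01 (30 µl, or 55 µl for S. pneumoniae), minus the first reading.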
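Throughout, for Bliss interaction score (quartile over a dose matrix): first quartile when negative (synergy) and third quartile when positive (antagonism).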
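Throughout, for fitness (endpoint OD595 vs no drug): OD595 on entry to stationary phase over no-drug wells; at most 1.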

C[C@@H](O)[C@H]1C(=O)N2C(C(=O)O)=C(SCCNC=N)C[C@H]12 [Imipenem] + Clc1ccc(COC(Cn2ccnc2)c2ccc(Cl)cc2Cl)c(Cl)c1 [Miconazole]
Settings | Bliss interaction score
[1] | 0.0412
[2] | 0.0759
[3] | -0.0815
[4] | -0.0307

fitness, [5]
Settings | first compound 0.005 µg/mL | first compound 0.0065 µg/mL | first compound 0.01 µg/mL | first compound 0.013 µg/mL | first compound 0.02 µg/mL | first compound 0.026 µg/mL
partner 1.073 µg/mL | ≥ 1 | – | ≥ 1 | – | ≥ 1 | –
partner 1.25 µg/mL | – | 0.877 | – | 0.869 | – | 0.72
partner 2.145 µg/mL | ≥ 1 | – | 0.998 | – | 0.99 | –
partner 2.5 µg/mL | – | 0.892 | – | 0.907 | – | 0.761
partner 4.29 µg/mL | 0.955 | – | 0.95 | – | 0.882 | –
partner 5 µg/mL | – | 0.908 | – | 0.947 | – | 0.886

O=C(O[C@@H]1Cc2c(O)cc(O)cc2O[C@@H]1c1cc(O)c(O)c(O)c1)c1cc(O)c(O)c(O)c1 [EGCG] + C[C@@H](O)[C@H]1C(=O)N2C(C(=O)O)=C(SCCNC=N)C[C@H]12 [Imipenem]
Settings | Bliss interaction score
[1] | -0.0357
[2] | 0.0607
[3] | 0.185
[4] | 0.0318

fitness, [5]
Settings | partner 0.005 µg/mL | partner 0.0065 µg/mL | partner 0.01 µg/mL | partner 0.013 µg/mL | partner 0.02 µg/mL | partner 0.026 µg/mL
first compound 12.5 µg/mL | 0.952 | 0.863 | 0.875 | 0.78 | 0.9 | 0.563
first compound 25 µg/mL | 0.985 | 0.833 | 0.971 | 0.959 | 0.842 | –
first compound 50 µg/mL | 0.912 | 0.896 | 0.939 | 0.799 | ≥ 1 | 0.899

O=C1CN(/N=C/c2ccc([N+](=O)[O-])o2)C(=O)N1 [Nitrofurantoin] + CN[C@@H]1[C@H](O)[C@H](NC)[C@H]2O[C@@]3(O)C(=O)C[C@@H](C)O[C@H]3O[C@@H]2[C@H]1O [Spectinomycin]
Settings | Bliss interaction score
[1] | -0.0743
[2] | 0.0652
[3] | -0.0552
[4] | -0.0511

fitness, [5]
Settings | partner 4 µg/mL | partner 8 µg/mL | partner 16 µg/mL
first compound 1.285 µg/mL | 0.96 | 0.889 | 0.829
first compound 2.57 µg/mL | 0.935 | 0.917 | 0.829

fitness, [5], one replicate
Settings | first compound 2 µg/mL | first compound 4 µg/mL | first compound 5.14 µg/mL | first compound 8 µg/mL
partner 4 µg/mL | 0.966 | 0.948 | 0.859 | 0.895
partner 8 µg/mL | 0.892 | 0.864 | 0.865 | 0.879
partner 16 µg/mL | – | – | 0.793 | –

CC[C@H]1OC(=O)[C@H](C)[C@@H](O[C@H]2C[C@@](C)(OC)[C@@H](O)[C@H](C)O2)[C@H](C)[C@@H](O[C@@H]2O[C@H](C)C[C@H](N(C)C)[C@H]2O)[C@](C)(OC)C[C@@H](C)C(=O)[C@H](C)[C@@H](O)[C@]1(C)O [Clarithromycin] + CCN(CC)CCOC(=O)c1ccc(N)cc1 [Procaine]
Settings | Bliss interaction score
[1] | 0.0493
[2] | 0.0576
[3] | 0.0395
[4] | 0.0711

fitness, [5], one replicate
Settings | first compound 0.007812 µg/mL | first compound 0.01562 µg/mL | first compound 0.03125 µg/mL | first compound 0.0625 µg/mL | first compound 0.125 µg/mL | first compound 0.25 µg/mL
partner 85.5 µg/mL | 0.962 | 0.921 | 0.691 | 0.659 | 0.251 | 0.102
partner 171 µg/mL | 0.983 | 0.903 | 0.702 | 0.77 | 0.284 | 0.169
partner 342 µg/mL | 0.993 | 0.923 | 0.719 | 0.595 | 0.464 | 0.33

fitness, [5]
Settings | first compound 0.07 µg/mL | first compound 0.14 µg/mL | first compound 0.28 µg/mL
partner 85.5 µg/mL | 0.125 | 0.0737 | 0.0531
partner 171 µg/mL | 0.141 | 0.065 | 0.0466
partner 342 µg/mL | 0.141 | 0.0668 | 0.061

C[C@@H](O)[C@H]1C(=O)N2C(C(=O)O)=C(SCCNC=N)C[C@H]12 [Imipenem] + C/C(=C\C(=O)OCCCCCCCCC(=O)O)C[C@@H]1OC[C@H](C[C@@H]2O[C@H]2[C@@H](C)[C@H](C)O)[C@@H](O)[C@H]1O [Pseudomonic acid]
Settings | Bliss interaction score
[1] | 0.0093
[2] | -0.146
[3] | 0.12
[4] | 0.0109

fitness, [5]
Settings | first compound 0.005 µg/mL | first compound 0.0065 µg/mL | first compound 0.01 µg/mL | first compound 0.013 µg/mL | first compound 0.02 µg/mL | first compound 0.026 µg/mL
partner 0.03 µg/mL | 0.897 | 0.799 | 0.896 | 0.889 | 0.917 | 0.89
partner 0.06 µg/mL | 0.772 | – | 0.799 | 0.7 | 0.77 | 0.688
partner 0.12 µg/mL | 0.578 | 0.439 | 0.583 | 0.479 | 0.583 | 0.504
